Results taken from patent publication US12590063B2, “Phenol derivative” (Sumitomo Pharma Co., Ltd., priority 2020, dated 2026).
Like-named read-outs stand apart in the source and are kept apart here.

Key:
[1] = target: T1, Human TRPV1 (Homo sapiens, UniProt Q8NER1); test: Evaluation of agonistic properties using human TRPV1 transiently expressing cells; type: cell-based; details: for TRPV-1-agonistic activity (in words): evaluation test for TRPV-1-agonistic properties, summary of Tables 3 and 4
T1 construct: the TRPV1 gene (GenBank NP_542435.2) had been inserted; expressed in transfected cells; host or cells: HEK293 cells (cat #CCL-82.2, ATCC), transient transfection with pcDNA3.1
T1 sequence (Q8NER1 whole entry): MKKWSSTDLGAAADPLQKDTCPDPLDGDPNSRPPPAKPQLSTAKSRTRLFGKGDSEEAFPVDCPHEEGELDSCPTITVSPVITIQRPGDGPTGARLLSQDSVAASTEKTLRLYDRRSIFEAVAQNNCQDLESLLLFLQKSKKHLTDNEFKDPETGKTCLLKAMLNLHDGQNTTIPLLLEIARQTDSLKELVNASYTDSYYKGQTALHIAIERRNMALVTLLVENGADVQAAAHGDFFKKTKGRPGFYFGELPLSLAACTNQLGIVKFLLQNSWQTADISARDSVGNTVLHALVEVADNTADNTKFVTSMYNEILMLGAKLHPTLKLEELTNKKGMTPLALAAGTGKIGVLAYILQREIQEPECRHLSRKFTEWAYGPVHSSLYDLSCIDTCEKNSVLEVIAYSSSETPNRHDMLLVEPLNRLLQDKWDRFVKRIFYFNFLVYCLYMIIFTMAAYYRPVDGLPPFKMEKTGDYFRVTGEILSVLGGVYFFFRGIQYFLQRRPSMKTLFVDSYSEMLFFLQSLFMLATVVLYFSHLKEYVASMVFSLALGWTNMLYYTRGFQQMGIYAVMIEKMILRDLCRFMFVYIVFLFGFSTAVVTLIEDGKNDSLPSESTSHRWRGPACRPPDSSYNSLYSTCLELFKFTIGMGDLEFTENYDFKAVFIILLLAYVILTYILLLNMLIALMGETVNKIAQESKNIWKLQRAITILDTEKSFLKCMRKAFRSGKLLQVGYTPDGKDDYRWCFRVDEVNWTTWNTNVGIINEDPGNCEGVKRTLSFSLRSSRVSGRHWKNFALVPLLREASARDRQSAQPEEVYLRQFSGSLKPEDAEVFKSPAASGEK
Description: Test Example 1: Evaluation of Agonistic Properties Using Human TRPV1 Transiently Expressing Cells
(1) Generation of Human TRPV1 Transiently Expressing Cells
Human TRPV1 transiently expressing cells were generated and subjected to culture. Specifically, HEK293 cells (cat #CCL-82.2, ATCC) were used as host cells. Human TRPV1 and apoaequorin were transiently expressed by introducing the mammalian cell expression pcDNA3.1 vector (cat #v790-20, Invitrogen) into which the TRPV1 gene (GenBank NP_542435.2) had been inserted.
The Dulbecco's Modified Eagle's Medium (DMEM) medium (cat #11550-043, Thermo Fisher Scientific) containing 10% inactivated fetal bovine serum (cat #10270-106, Thermo Fisher Scientific) was used as the medium, and the culture was carried out in tissue culture dishes (cat #3020-100, Iwaki). During the culture, cells were collected every 2 to 3 days by treating with PBS containing 10% 2.5 g/1-trypsin/[…] solution, phenol red (cat #32777-44, Nacalai Tesque), and passage culture was carried out.
Three days after the passage, cells were collected with 10% trypsin-PBS treatment at a state of about 80% confluency, suspended in a DMEM medium containing 10% fetal bovine serum to 4000 cells/35 μl/well, and seeded into 384-well plates (cat #353962, FALCON).
The day after seeding, Viviren (cat #E6492, Promega) was added (15 μl/well) to a final concentration of 4.5 μM/HBSS (cat #14065-056, Thermo Fisher Scientific)/90 mM HEPES (cat #17514-15, Nacalai Tesque)/0.1% BSA (cat #01281-84, Nacalai Tesque), and after centrifugation, the samples were allowed to stand at room temperature for 2 hours under light-shielded conditions.
(2) Preparation of Test Compounds
For the test compounds, dimethyl sulfoxide solutions were produced at a concentration 1000 times the final concentration, and from these solutions, solutions at concentration 10 times the final concentration were prepared with Hanks/20 mmol/L HEPES/0.10% BSA (cat #01281-84, Nacalai Tesque).
(3) Evaluation of TRPV1-Agonistic Properties
FDSS7000 (Hamamatsu Photonics K.K.) was used for detection of TRPV1 agonist-stimulated luminescence signals. The test compounds were added to plates to which the cells and luminescent substrates had been added. The luminescence signals (center wavelength: 465 nm) after addition of the test compounds were measured, and the Rlu (Max−Min) was calculated.

[2] = Evaluation test for metabolic stability to S9; type: in vitro ADME; details: liver S9 fraction, 37° C., 15 minutes, final compound concentration 10 nM
Description: Test Example 4: Evaluation Test for Metabolic Stability to S9
The compounds were added to a reaction solution in which the liver S9 fraction was diluted with phosphate buffer, and incubation was initiated at 37° C. (final compound concentration 10 nM, final volume 300 μL). After incubation for 15 minutes, the reaction was stopped by adding the reaction solution to acetonitrile, and centrifugation was carried out. After filtering the supernatant through a filter, the amount of compounds was determined using LC/MS/MS. From the amount of compounds obtained, the residual rate 15 minutes after the initiation of the reaction was calculated relative to the amount of compounds before the initiation of the reaction (0 minutes).

[3] = HEK293 cells transiently expressing human TRPV1 and apoaequorin, luminescence signal Rlu (Max-Min), read-out: TRPV1 EC50

| SMILES | EC50 [1, 3] [nM] | Residual rate (%) [2] [%] | TRPV-1-agonistic activity (in words) [1] | EC50 [1] [nM] |
| --- | --- | --- | --- | --- |
| CCC(=O)Oc1cccc(-c2cccc(NC(=O)Cc3ccc(O)c(OC)c3)c2)c1 [Example 16, 3′-[2-(4-hydroxy-3-methoxyphenyl)acetamido][1,1′-biphenyl]-3-yl propanoate] | 6.3 | <1 |  |  |
| COc1cc(CNC(=O)c2cccc(-c3cccc(O)c3)n2)ccc1O [compound 19] | 2720 |  |  |  |
| COc1cc(CNC(=O)c2cccc([C@H]3CC[C@@H](OC(C)=O)CC3)c2)ccc1O [Example 42, cis-4-(3-{[(4-hydroxy-3-methoxyphenyl)methyl]carbamoyl}phenyl)cyclohexyl acetate] | 83.1 |  |  |  |
| COc1cc(CC(=O)Nc2cccc([C@H]3CC[C@@H](OC(=O)COc4ccccc4)CC3)c2)ccc1O [Example 6, cis-4-{3-[2-(4-hydroxy-3-methoxyphenyl)acetamido]phenyl}cyclohexyl phenoxyacetate] | 5.3 | 1 |  |  |
| COc1cc(CNC(=O)c2cccc(-c3cccc(OC(=O)CC4CCCCC4)c3)c2)ccc1O [Example 45, 3′-{[(4-hydroxy-3-methoxyphenyl)methyl]carbamoyl}[1,1′-biphenyl]-3-yl cyclohexylacetate] | 31.3 | <1 |  |  |
| COc1cc(CC(=O)Nc2cccc([C@H]3CC[C@@H](OC(=O)CC4CCOCC4)CC3)c2)ccc1O [Example 11, cis-4-{3-[2-(4-hydroxy-3-methoxyphenyl)acetamido]phenyl}cyclohexyl (oxa-4-yl)acetate] | 21.3 | 91 |  |  |
| COc1cc(CC(=O)Nc2cccc([C@H]3CC[C@@H](OC(=O)C(C)C)CC3)c2)ccc1O [Example 17, cis-4-{3-[2-(4-hydroxy-3-methoxyphenyl)acetamido]phenyl}cyclohexyl 2-methylpropanoate] | 2.6 | <1 | stronger TRPV-1-agonistic activity |  |
| COc1cc(CC(=O)Nc2cc(-c3cccc(OC(=O)C(C)C)c3)ccn2)ccc1O [Example 25, 3-{2-[2-(4-hydroxy-3-methoxyphenyl)acetamido]pyridin-4-yl}phenyl 2-methylpropanoate] | 38 | <1 |  |  |
| COc1cc(CC(=O)Nc2cccc(-c3cccc(OC(=O)Cc4ccc(C)cc4)c3)c2)ccc1O [Example 27, 3′-[2-(4-hydroxy-3-methoxyphenyl)acetamido][1,1′-biphenyl]-3-yl (4-methylphenyl)acetate] | 11.1 | <1 |  |  |
| COc1cc(CC(=O)Nc2cccc(-c3cccc(OC(=O)CC4CCOCC4)c3)c2)ccc1O [Example 29, 3′-[2-(4-hydroxy-3-methoxyphenyl)acetamido][1,1′-biphenyl]-3-yl (oxa-4-yl)acetate] | 13.2 | <1 |  |  |
| COc1cc(CNC(=O)c2cccc(-c3cccc(O)c3)c2)ccc1O [Reference Example 12, 3′-Hydroxy-N-[(4-hydroxy-3-methoxyphenyl)methyl][1,1′-biphenyl]-3-carboxamide] | 3290 |  |  |  |
| COc1cc(CC(=O)Nc2cccc(-c3cccc(OC(=O)Cc4ccccc4F)c3)c2)ccc1O [Example 28, 3′-[2-(4-hydroxy-3-methoxyphenyl)acetamido][1,1′-biphenyl]-3-yl (2-fluorophenyl)acetate] | 8.8 | <1 |  |  |
| COc1cc(CC(=O)Nc2cccc([C@H]3CC[C@H](OC(=O)Cc4ccccc4)CC3)c2)ccc1O [Example 36, trans-4-{3-[2-(4-hydroxy-3-methoxyphenyl)acetamido]phenyl}cyclohexyl phenylacetate] |  |  |  | 57.5 |
| COc1cc(CC(=O)Nc2cccc(-c3cccc(OC(=O)CC4CCCCC4)c3)c2)ccc1O [Example 30, 3′-[2-(4-hydroxy-3-methoxyphenyl)acetamido][1,1′-biphenyl]-3-yl cyclohexylacetate] | 7.2 | <1 |  |  |
| COc1cc(CC(=O)Nc2ccc(F)c(-c3cccc(O)c3)c2)ccc1O [compound 17] | 7020 |  |  |  |
| COc1cc(CC(=O)Nc2cccc([C@H]3CC[C@@H](OC(=O)Cc4ccccc4F)CC3)c2)ccc1O [Example 15, cis-4-{3-[2-(4-hydroxy-3-methoxyphenyl)acetamido]phenyl}cyclohexyl (2-fluorophenyl)acetate] | 4.6 | 69 | stronger TRPV-1-agonistic activity |  |

| SMILES | EC50 [1, 3] [nM] | Residual rate (%) [2] [%] | TRPV-1-agonistic activity (in words) [1] | EC50 [1] [nM] |
| --- | --- | --- | --- | --- |
| COc1cc(CC(=O)Nc2cccc([C@H]3CC[C@@H](OC(=O)Cc4ccccc4Cl)CC3)c2)ccc1O [Example 10, cis-4-{3-[2-(4-hydroxy-3-methoxyphenyl)acetamido]phenyl}cyclohexyl (2-chlorophenyl)acetate] | 4.8 | 67 |  |  |
| COc1cc(CC(=O)Nc2cccc(-c3ccc(O)cc3)c2)ccc1O [compound 13] | 606 |  |  |  |
| COc1cc(CC(=O)Nc2ccnc([C@H]3CC[C@@H](OC(C)=O)CC3)c2)ccc1O [Example 41, cis-4-{4-[2-(4-hydroxy-3-methoxyphenyl)acetamido]pyridin-2-yl}cyclohexyl acetate] | 95.1 |  |  |  |
| COc1cc(CC(=O)Nc2cccc(-c3cccc(O)c3)c2)ccc1O [compound 14] | 1650 |  |  |  |
| COc1cc(CC(=O)Nc2cccc([C@H]3CC[C@@H](OC(=O)Cc4ccccc4)CC3)c2)ccc1O [Example 35, cis-4-{3-[2-(4-hydroxy-3-methoxyphenyl)acetamido]phenyl}cyclohexyl phenylacetate] |  |  |  | 8.2 |
| COc1cc(CNC(=O)c2ccnc(-c3cccc(O)c3)c2)ccc1O [Reference Example 18] | 6110 |  |  |  |
| COc1cc(CC(=O)Nc2cccc([C@H]3CC[C@H](OC(C)=O)CC3)c2)ccc1O [Example 38, trans-4-{3-[2-(4-hydroxy-3-methoxyphenyl)acetamido]phenyl}cyclohexyl acetate] | 18.9 |  |  |  |
| COc1cc(CC(=O)Nc2cccc([C@H]3CC[C@H](OC(C)=O)CC3)c2)ccc1OC(C)=O [Example 40, 4-(2-{3-[(trans)-4-(acetyloxy)cyclohexyl]anilino}-2-oxoethyl)-2-methoxyphenyl acetate] | 480 |  |  |  |
| COc1cc(CC(=O)Nc2cccc([C@H]3CC[C@H](OC(=O)C(C)C)CC3)c2)ccc1O [Example 48, trans-4-{3-[2-(4-hydroxy-3-methoxyphenyl)acetamido]phenyl}cyclohexyl 2-methylpropanoate] | 32.1 |  |  |  |
| COc1cc(CC(=O)Nc2ccnc(-c3cccc(O)c3)c2)ccc1O [compound 15] | 4560 |  |  |  |
| COc1cc(CC(=O)Nc2cccc([C@H]3CC[C@H](O)CC3)c2)ccc1O [Reference Example 10, N-{3-[(trans)-4-Hydroxycyclohexyl]phenyl}-2-(4-hydroxy-3-methoxyphenyl)acetamide] | 8060 |  |  |  |
| COc1cc(CC(=O)Nc2cccc([C@H]3CC[C@@H](O)CC3)c2)ccc1O [Reference Example 9, N-{3-[(cis)-4-Hydroxycyclohexyl]phenyl}-2-(4-hydroxy-3-methoxyphenyl)acetamide] | 2690 |  |  |  |
| COc1cc(CC(=O)Nc2cccc([C@H]3CC[C@H](OC(=O)C4CCCCC4)CC3)c2)ccc1O [Example 37, trans-4-{3-[2-(4-hydroxy-3-methoxyphenyl)acetamido]phenyl}cyclohexyl cyclohexanecarboxylate] | 73.1 |  |  |  |
| COc1cc(CC(=O)Nc2cccc(-c3cccc(O)c3)n2)ccc1O [compound 16] | 1010 |  |  |  |
| COc1cc(CC(=O)Nc2cccc([C@H]3CC[C@@H](OC(C)=O)CC3)c2)ccc1OC(C)=O [Example 39, 4-(2-{3-[(cis)-4-(acetyloxy)cyclohexyl]anilino}-2-oxoethyl)-2-methoxyphenyl acetate] | 282 |  |  |  |
| COc1cc(CC(=O)Nc2ccnc([C@H]3CC[C@@H](OC(C)=O)CC3)c2)ccc1OC(C)=O [Example 43, 4-[2-({2-[(cis)-4-(acetyloxy)cyclohexyl]pyridin-4-yl}amino)-2-oxoethyl]-2-methoxyphenyl acetate] | 3080 |  |  |  |
